“And” between values parts separate entries of the source, which are not always exact repeats. Identical values can stand only once.
Legend:
[1] = test system: human liver mitochondrial fraction; assay: Intrinsic clearance and half-life in human liver mitochondrial fraction; format: in vitro ADME; settings: 0.5 mg/mL human liver mitochondrial fraction, 1 μM test compounds; for Half-life (min) R1: 5 μM Serotonin and Benzylamine controls, replicate 1; for Half-life (min) R3: replicate 3; for Half-life (min) R4: replicate 4
Text: (§1) Use of Liver Mitochondrial Fraction to Model Human Metabolism of Deuterated DMT

[2] = cited from earlier work
[3] = Initial solubility test of DMT fumarate in aqueous vehicles; format: physicochemical
Protocol: Solubility of DMT fumarate was assessed at a concentration of 10 mg/ml in a small selection of aqueous vehicles (water, saline, 20 mM phosphate buffer and a combination of buffer and saline).
Phosphate buffer (100 ml) was prepared using 219.53 mg of the dibasic form [HPO4][Na]2 with 183.7 mg of the monobasic form [H2PO4]Na, both dihydrate salts. The solution was adjusted to pH 7.0 with addition of NaOH (1 M) and then made to volume. 10 ml of a 10 mg/ml formulation was prepared.
To prepare this, sodium chloride was first dissolved in water to produce the saline solution (100 ml, 0.45% w/v). The phosphate salts, in the quantities described above, were then dissolved in the saline solution and the pH was adjusted using NaOH (1 M).
The pH of these solutions was in the range 3-4.

[4] = Solubility of DMT fumarate at different pH values in Britton-Robinson buffer; settings: before pH adjustment
[5] = Plasma pharmacokinetics of test compound after oral dosing in rats; settings: rat plasma; for Determined Concentration of test compound in plasma / Determined Concentration of test compound in plasma, Mean: oral dosing; for Determined Concentration of test compound in plasma: individual animal; for Determined Concentration of test compound in plasma, Mean: mean of 3 animals
[6] = Plasma IAA metabolite levels after oral dosing in rats; settings: for Estimated IAA Concentration / Estimated IAA Concentration, Mean: rat plasma, PO Dose (25 mg/kg); for Estimated IAA Concentration: individual animal; for Estimated IAA Concentration, Mean: mean of animals
[7] = Intrinsic clearance and half-life in human liver mitochondrial fraction; format: in vitro ADME; settings: 0.5 mg/mL human liver mitochondrial fraction; 1 μM test compounds, 5 μM controls; mean of replicates
Text: as §1

SMILES: CN(C)CCc1c[nH]c2ccccc12.O=C(O)/C=C/C(=O)O [SPL026, N,N-dimethyltryptamine (DMT) fumarate salt]
- Half-life (min) R1 [1]: 8.8 min
- Half-life (min) Mean ([1]; 5 μM controls, mean of replicates): 8.3 min
- Half-life (min) R3 ([1]; 5 μM controls): 7.6 min
- Half-life (min) R4 ([1]; 5 μM controls): 8.3 min
- predicted half-life in humans ([2]; humans): 5 min
- duration of action ([2]; psychedelic effect): under 20 minutes
- pH of these solutions ([3]; 10 mg/ml in aqueous vehicles): 3-4
- Solubility at a concentration of 10 mg/ml in aqueous vehicles ([3]; water, saline, 20 mM phosphate buffer, buffer and saline): readily soluble
- dissolution at 20 mg/ml in Britton-Robinson buffer solution [4]: very soluble
- mean Cmax ([5]; 25 mg/kg single oral gavage): 27.9 ng/mL
- Determined Concentration of test compound in plasma ([5]; 1 min, fumarate salt): BLQ (Below the lower limit of quantification 0.310 ng/mL) (2×) and 0.391 ng/mL
- Determined Concentration of test compound in plasma, Mean ([5]; 1 min): <0.3 ng/mL
- Determined Concentration of test compound in plasma ([5]; 5 min, fumarate salt): BLQ (Below the lower limit of quantification 0.310 ng/mL) (2×) and 0.590 ng/mL
- Determined Concentration of test compound in plasma, Mean ([5]; 5 min): <0.4 ng/mL
- Determined Concentration of test compound in plasma ([5]; 10 min, fumarate salt): BLQ (Below the lower limit of quantification 0.310 ng/mL) and 4.06 ng/mL and 20.7 ng/mL
- Determined Concentration of test compound in plasma, Mean ([5]; 10 min): <8.4 ng/mL
- Determined Concentration of test compound in plasma ([5]; 15 min, fumarate salt): 0.763 ng/mL and 19.9 ng/mL and 25.7 ng/mL
- Determined Concentration of test compound in plasma, Mean ([5]; 15 min): 15.5 ng/mL
- Determined Concentration of test compound in plasma ([5]; 30 min, fumarate salt): 7.77 ng/mL and 25.2 ng/mL and 29.5 ng/mL
- Determined Concentration of test compound in plasma, Mean ([5]; 30 min): 20.8 ng/mL
- Determined Concentration of test compound in plasma ([5]; 45 min, fumarate salt): 18.0 ng/mL and 18.5 ng/mL and 28.6 ng/mL
- Determined Concentration of test compound in plasma, Mean ([5]; 45 min): 21.7 ng/mL
- Determined Concentration of test compound in plasma ([5]; 60 min, fumarate salt): 16.9 ng/mL and 31.6 ng/mL and 34.1 ng/mL
- Determined Concentration of test compound in plasma, Mean ([5]; 60 min): 27.5 ng/mL
- Determined Concentration of test compound in plasma ([5]; 120 min, fumarate salt): 13.7 ng/mL and 11.7 ng/mL and 16.9 ng/mL
- Determined Concentration of test compound in plasma, Mean ([5]; 120 min): 14.1 ng/mL
- Determined Concentration of test compound in plasma ([5]; 180 min, fumarate salt): 5.83 ng/mL and 2.57 ng/mL and 2.45 ng/mL
- Determined Concentration of test compound in plasma, Mean ([5]; 180 min): 3.6 ng/mL
- Determined Concentration of test compound in plasma ([5]; Predose): BLQ (Below the lower limit of quantification 0.310 ng/mL)
- Determined Concentration of test compound in plasma, Mean ([5]; Predose): BLQ (Below the lower limit of quantification 0.310 ng/mL)
- Mean IAA Cmax ([6]; rat plasma IAA (semi quantified) after 25 mg/kg PO of the compound): 9.204 ng/mL
- Mean IAA tmax ([6]; rat plasma IAA after 25 mg/kg PO of the compound): 30 min
- Estimated IAA Concentration ([6]; 1 min): BLQ
- Estimated IAA Concentration, Mean ([6]; 1 min): BLQ
- Estimated IAA Concentration ([6]; 5 min, fumarate salt, 25 mg/kg): 0.549 ng/mL and 1.33 ng/mL and 1.64 ng/mL
- Estimated IAA Concentration, Mean ([6]; 5 min): 1.171 ng/mL
- Estimated IAA Concentration ([6]; 10 min, fumarate salt, 25 mg/kg): 1.08 ng/mL and 2.58 ng/mL and 4.39 ng/mL
- Estimated IAA Concentration, Mean ([6]; 10 min): 2.683 ng/mL
- Estimated IAA Concentration ([6]; 15 min, fumarate salt, 25 mg/kg): 1.82 ng/mL and 5.55 ng/mL and 6.09 ng/mL
- Estimated IAA Concentration, Mean ([6]; 15 min): 4.487 ng/mL
- Estimated IAA Concentration ([6]; 30 min, fumarate salt, 25 mg/kg): 7.08 ng/mL and 11.8 ng/mL and 8.88 ng/mL
- Estimated IAA Concentration, Mean ([6]; 30 min): 9.245 ng/mL
- Estimated IAA Concentration ([6]; 45 min, fumarate salt, 25 mg/kg): 5.10 ng/mL and 6.44 ng/mL and 9.98 ng/mL
- Estimated IAA Concentration, Mean ([6]; 45 min): 7.174 ng/mL
- Estimated IAA Concentration ([6]; 60 min, fumarate salt, 25 mg/kg): 6.18 ng/mL and 9.74 ng/mL and 11.7 ng/mL
- Estimated IAA Concentration, Mean ([6]; 60 min): 9.204 ng/mL
- Estimated IAA Concentration ([6]; 120 min, fumarate salt, 25 mg/kg): 7.40 ng/mL and 7.70 ng/mL and 8.67 ng/mL
- Estimated IAA Concentration, Mean ([6]; 120 min): 7.924 ng/mL
- Estimated IAA Concentration ([6]; 180 min, fumarate salt, 25 mg/kg): 4.34 ng/mL and 2.53 ng/mL and 3.08 ng/mL
- Estimated IAA Concentration, Mean ([6]; 180 min): 3.316 ng/mL
- Estimated IAA Concentration ([6]; Predose): BLQ
- Estimated IAA Concentration, Mean ([6]; Predose): BLQ

SMILES: NCCc1c[nH]c2ccc(O)cc12 [Serotonin, reference compound]
- Half-life (min) R1 [1]: 9.3 min
- Half-life (min) R3 ([1]; 5 μM controls): 9.1 min
- Half-life (min) R4 ([1]; 5 μM controls): 8.5 min
- half-life at 5 μM [7]: 9 min
